Laboratory results as given in patent US4490370A, “Naphthylglycyl cephalosporin derivatives” (priority 1983, dated 1984).
Converted amounts (≈) assume the structure as drawn. Like-named read-outs stand apart in the source and are kept apart here.

How the values were obtained:
Bacteroides fragilis = assay: Susceptibility of anaerobes, agar-dilution, 24 hour MIC; type: cell-based
Peptococcus Constellatus = assay: Susceptibility of anaerobic cocci, agar-dilution, 24 hour MIC; type: cell-based; conditions: Streptococcus constellatus, isolate 1468
Source text: (§1) A typical and preferred compound provided by this invention is 7-(2-naphthylglycylamido)-3-methyl-3-cephem-4-carboxylic acid, the compound of Example 3. The antibacterial activity of this compound and several others of the invention has been determined in standard in vitro agar dilution assays against a variety of gram positive microorganisms. The following Tables present typical minimum inhibitory concentrations (MIC's) in μg/ml for the compounds when evaluated against the indicated microorganisms. MIC's for several known compounds are also presented for comparison.
(§2) Susceptibility of Anaerobic Cocci
(§3) Isolates by the Agar-Dilution
(§4) Method-24 hour MIC's (μg/ml)

P. magnus = assay: as above; type: cell-based; conditions: Finegoldia magna
Source text: as §1, §2, §3, §4

[1] = tested on: Peptostreptococcus anaerobius; assay: as above; type: cell-based
Source text: as §1, §2, §3, §4

P. prevoti = assay: as above; type: cell-based; conditions: isolate 1293
Source text: as §1, §2, §3, §4

[2] = tested on: Peptococcus Asaccharolyticus; assay: as above; type: cell-based; conditions: Peptoniphilus asaccharolyticus, isolate 1344
Source text: as §1, §2, §3, §4

[3] = tested on: Peptostreptococcus intermedius; assay: as above; type: cell-based
Source text: as §1, §2, §3, §4

Propionibacterum acnes = assay: Susceptibility of anaerobes, agar-dilution, 24 hour MIC; type: cell-based
Source text: as §1, §2, §3, §4

B. Fragilis = assay: Expanded spectrum MIC, B. Fragilis; type: cell-based; conditions: Bacteroides fragilis, Table III
Source text: as §1

Staph. aureus = assay: Agar dilution MIC, Staph. aureus; type: cell-based; conditions: Staphylococcus aureus
Source text: (§5) The following Tables present typical minimum inhibitory concentrations (MIC's) in μg/ml for the compounds when evaluated against the indicated microorganisms.

[4] = tested on: β-lactamase (organism 1313G); assay: Stability to β-lactamases, 1313G; type: biochemical; conditions: lower numbers mean greater stability
[5] = tested on: β-lactamase (organism 265A); assay: Stability to β-lactamases, 265A; type: biochemical; conditions: lower numbers mean greater stability
[6] = tested on: β-lactamase (organism PS185); assay: Stability to β-lactamases, PS185; type: biochemical; conditions: lower numbers mean greater stability
H. influ. = assay: Agar dilution MIC, H. influenza; type: cell-based; conditions: read-out: MIC
Source text: as §5

β-lactamase (TEM) = assay: Stability to β-lactamases, TEM; type: biochemical; conditions: lower numbers mean greater stability
[7] = tested on: β-lactamase (organism 1082E); assay: Stability to β-lactamases, 1082E; type: biochemical; conditions: lower numbers mean greater stability
Strep. PN = assay: Agar dilution MIC, Strep. PN; type: cell-based; conditions: Table I, strain PARK; read-out: MIC
Source text: as §5

Strep. A = assay: Agar dilution MIC, Strep. A; type: cell-based
Source text: as §1

Staph. epi = assay: Agar dilution MIC, Staph. epi; type: cell-based
Source text: as §5

Klebsiella = assay: Agar dilution MIC, Klebsiella; type: cell-based; conditions: Klebsiella
Source text: as §1

[8] = Table III, strain 8438, read-out: MIC
[9] = Table III, strain 9050, read-out: MIC
[10] = Table III, strain 9136, read-out: MIC

With CO[C@@]1(NC(=O)Cc2cccs2)C(=O)N2C(C(=O)O)=C(COC(N)=O)CS[C@@H]21 [Cefoxitin, reference compound] the MIC (Bacteroides fragilis; isolate 200) was 8 µg/mL (≈ 18.7 µM), the MIC (Bacteroides fragilis; isolate 206) was 16 µg/mL (≈ 37.4 µM) and the MIC (Bacteroides fragilis; isolate 3625) was 16 µg/mL (≈ 37.4 µM). The MIC (Bacteroides fragilis; isolate 7371A) was 8 µg/mL (≈ 18.7 µM), the MIC (Bacteroides fragilis; isolate 19671) was 16 µg/mL (≈ 37.4 µM) and the MIC (Bacteroides fragilis; isolate 19681) was 32 µg/mL (≈ 74.9 µM). The MIC (Peptococcus Constellatus) was 8 µg/mL (≈ 18.7 µM), the MIC (P. magnus; isolate 1401) was 2 µg/mL (≈ 4.68 µM) and the MIC (P. magnus; isolate 1477) was 0.5 µg/mL (≈ 1.17 µM). The MIC ([1]; isolate 8) was 0.25 µg/mL (≈ 0.585 µM), the MIC ([1]; isolate 52) was 2 µg/mL (≈ 4.68 µM) and the MIC ([1]; isolate 1477) was 1 µg/mL (≈ 2.34 µM). The MIC (P. prevoti) was 1 µg/mL (≈ 2.34 µM), the MIC [2] was 0.25 µg/mL (≈ 0.585 µM) and the MIC ([3]; isolate 1264) was 1 µg/mL (≈ 2.34 µM). For the same compound, the MIC ([3]; isolate 1524) was 4 µg/mL (≈ 9.36 µM), the MIC ([3]; isolate 1624) was 4 µg/mL (≈ 9.36 µM) and the MIC (Propionibacterum acnes; isolate 44) was 2 µg/mL (≈ 4.68 µM). The MIC (Propionibacterum acnes; isolate 79) was 8 µg/mL (≈ 18.7 µM), the MIC (Propionibacterum acnes; isolate 101) was 4 µg/mL (≈ 9.36 µM) and the MIC (Propionibacterum acnes; isolate 104) was 4 µg/mL (≈ 9.36 µM). The MIC (Propionibacterum acnes; isolate 105) was 2 µg/mL (≈ 4.68 µM), the MIC (Propionibacterum acnes; isolate 5191) was at most 0.06 µg/mL and the MIC (Propionibacterum acnes; isolate 5227) was 2 µg/mL (≈ 4.68 µM). It also gave an MIC (Propionibacterum acnes; isolate 5228) of 4 µg/mL (≈ 9.36 µM), an MIC (Propionibacterum acnes; isolate 5229) of 2 µg/mL (≈ 4.68 µM) and an MIC (Propionibacterum acnes; isolate 5246) of 4 µg/mL (≈ 9.36 µM).
In the case of N[C@@H](C(=O)N[C@@H]1C(=O)N2C(C(=O)O)=C(Cl)CS[C@H]12)c1ccccc1 [Cefaclor, 7-phenylglycylamido-3-chloro-3-cephem-4-carboxylic acid, reference compound], the MIC (B. Fragilis; strain 180-821) was 64 µg/mL (≈ 174 µM), the MIC (B. Fragilis; strain 10668) was 64 µg/mL (≈ 174 µM) and the MIC (B. Fragilis; strain 10683) was 16 µg/mL (≈ 43.5 µM). The MIC (B. Fragilis; strain 10695) was 32 µg/mL (≈ 87 µM), the MIC (B. Fragilis; strain 10750) was over 64 µg/mL and the MIC (B. Fragilis; strain 10774) was over 64 µg/mL. The MIC (B. Fragilis; strain 10817) was 64 µg/mL (≈ 174 µM), the MIC (B. Fragilis; strain 10837) was over 64 µg/mL and the MIC (B. Fragilis; strain 107266) was 16 µg/mL (≈ 43.5 µM). The MIC (B. Fragilis; strain 107268) was 16 µg/mL (≈ 43.5 µM), the MIC (Staph. aureus; [8]) was 1 µg/mL (≈ 2.72 µM) and the MIC (Staph. aureus; [9]) was 2 µg/mL (≈ 5.44 µM). It also gave an MIC (Staph. aureus; [10]) of 2 µg/mL (≈ 5.44 µM), an MIC (Staph. aureus; Table III, strain 9290, read-out: MIC) of 8 µg/mL (≈ 21.8 µM) and an MIC (Staph. aureus; Table III, strain 9767, read-out: MIC) of 2 µg/mL (≈ 5.44 µM). For the same compound, the “Stability to β-lactamases” value [4] was 4605, the “Stability to β-lactamases” value [5] was 138 and the “Stability to β-lactamases” value [6] was 71. It also gave an MIC (H. influ.; Table III, strain 101) of 2 µg/mL (≈ 5.44 µM), an MIC (H. influ.; Table III, strain 102) of 16 µg/mL (≈ 43.5 µM) and an MIC (H. influ.; Table III, strain 103) of 2 µg/mL (≈ 5.44 µM). It also gave an MIC (H. influ.; Table III, strain 104) of 1 µg/mL (≈ 2.72 µM), an MIC (H. influ.; Table III, strain 105) of 1 µg/mL (≈ 2.72 µM) and an MIC (H. influ.; Table III, strain 106) of 2 µg/mL (≈ 5.44 µM). It also gave an MIC (H. influ.; Table III, strain 107) of 2 µg/mL (≈ 5.44 µM), an MIC (H. influ.; Table III, strain 108) of 1 µg/mL (≈ 2.72 µM) and an MIC (H. influ.; Table III, strain 109) of 2 µg/mL (≈ 5.44 µM). The MIC (H. influ.; Table III, strain 110) was 1 µg/mL (≈ 2.72 µM), the MIC (H. influ.; Table III, strain 111) was 1 µg/mL (≈ 2.72 µM) and the “Stability to β-lactamases” value (β-lactamase (TEM)) was 23. For the same compound, the “Stability to β-lactamases” value [7] was 65.
In the case of CC1=C(C(=O)O)N2C(=O)[C@@H](NC(=O)[C@H](N)c3ccccc3)[C@H]2SC1 [Cephalexin, reference compound], the MIC (Strep. PN) was 2 µg/mL (≈ 5.76 µM), the MIC (B. Fragilis; strain 180-821, read-out: MIC) was 16 µg/mL (≈ 46.1 µM) and the MIC (B. Fragilis; strain 10668, read-out: MIC) was over 64 µg/mL. It also gave an MIC (B. Fragilis; strain 10683, read-out: MIC) of over 64 µg/mL, an MIC (B. Fragilis; strain 10695, read-out: MIC) of 64 µg/mL (≈ 184 µM) and an MIC (B. Fragilis; strain 10750, read-out: MIC) of 64 µg/mL (≈ 184 µM). It also gave an MIC (B. Fragilis; strain 10774, read-out: MIC) of over 64 µg/mL, an MIC (B. Fragilis; strain 10817, read-out: MIC) of 16 µg/mL (≈ 46.1 µM) and an MIC (B. Fragilis; strain 10837, read-out: MIC) of 16 µg/mL (≈ 46.1 µM). It also gave an MIC (B. Fragilis; strain 107266, read-out: MIC) of 32 µg/mL (≈ 92.1 µM), an MIC (B. Fragilis; strain 107268, read-out: MIC) of 16 µg/mL (≈ 46.1 µM) and an MIC (Staph. aureus; Table I, strain S13E) of 128 µg/mL (≈ 368 µM). The MIC (Staph. aureus; Table III expanded spectrum, strain 8725, read-out: MIC) was 2 µg/mL (≈ 5.76 µM), the MIC (Staph. aureus; [8]) was 1 µg/mL (≈ 2.88 µM) and the MIC (Staph. aureus; Table III, strain 8787, read-out: MIC) was 1 µg/mL (≈ 2.88 µM). It also gave an MIC (Staph. aureus; [9]) of 2 µg/mL (≈ 5.76 µM), an MIC (Staph. aureus; [10]) of 2 µg/mL (≈ 5.76 µM) and an MIC (H. influ.; Table I, strain 251) of 8 µg/mL (≈ 23 µM). For the same compound, the MIC (H. influ.; Table I, strain BRUN) was 8 µg/mL (≈ 23 µM), the MIC (H. influ.; Table III, strain 101) was 8 µg/mL (≈ 23 µM) and the MIC (H. influ.; Table III, strain 102) was 16 µg/mL (≈ 46.1 µM). For the same compound, the MIC (H. influ.; Table III, strain 103) was 16 µg/mL (≈ 46.1 µM), the MIC (H. influ.; Table III, strain 104) was 16 µg/mL (≈ 46.1 µM) and the MIC (H. influ.; Table III, strain 105) was 4 µg/mL (≈ 11.5 µM). It also gave an MIC (H. influ.; Table III, strain 106) of 8 µg/mL (≈ 23 µM), an MIC (H. influ.; Table III, strain 107) of 8 µg/mL (≈ 23 µM) and an MIC (H. influ.; Table III, strain 108) of 8 µg/mL (≈ 23 µM). For the same compound, the MIC (H. influ.; Table III, strain 109) was 16 µg/mL (≈ 46.1 µM), the MIC (H. influ.; Table III, strain 110) was 8 µg/mL (≈ 23 µM) and the MIC (H. influ.; Table III, strain 111) was 16 µg/mL (≈ 46.1 µM). The MIC (Strep. A) was 0.5 µg/mL (≈ 1.44 µM), the MIC (Staph. epi) was 8 µg/mL (≈ 23 µM) and the MIC (Staph. epi; Table I, strain EPI1, read-out: MIC) was 32 µg/mL (≈ 92.1 µM). The MIC (Klebsiella) was 4 µg/mL (≈ 11.5 µM).
